“Also recorded” adds a separate entry of the source.
Experiments:
[1] = biological target: mouse α9α10 nAChR (Mus musculus, UniProt B2RX82+G3X8Z7); test: Agonist activation of mouse α9α10 nAChRs in Xenopus oocytes (two-electrode voltage clamp); format: biochemical; conditions: for Hill slope for activation / EC50: 95% confidence interval in parentheses, ACh n = 5, choline n = 4; for agonist behaviour (words): oocyte two-electrode voltage clamp, nicotine 100 nM to 10 mM; for EC50: oocytes, holding potential −70 mV
Chain of mouse α9α10 nAChR (G3X8Z7 23-479): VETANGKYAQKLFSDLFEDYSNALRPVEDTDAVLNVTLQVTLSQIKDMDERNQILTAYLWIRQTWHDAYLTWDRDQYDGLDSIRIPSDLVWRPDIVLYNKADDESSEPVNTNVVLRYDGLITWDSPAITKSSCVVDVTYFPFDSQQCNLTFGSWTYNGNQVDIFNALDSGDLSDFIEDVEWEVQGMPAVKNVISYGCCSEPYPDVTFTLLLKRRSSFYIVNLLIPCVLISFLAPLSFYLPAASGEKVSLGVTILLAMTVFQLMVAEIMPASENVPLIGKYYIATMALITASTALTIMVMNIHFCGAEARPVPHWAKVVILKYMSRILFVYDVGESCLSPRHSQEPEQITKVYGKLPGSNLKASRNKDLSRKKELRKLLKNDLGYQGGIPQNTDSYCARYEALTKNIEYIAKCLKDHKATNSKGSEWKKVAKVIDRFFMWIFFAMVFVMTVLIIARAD
Chain of mouse α9α10 nAChR (B2RX82 25-447): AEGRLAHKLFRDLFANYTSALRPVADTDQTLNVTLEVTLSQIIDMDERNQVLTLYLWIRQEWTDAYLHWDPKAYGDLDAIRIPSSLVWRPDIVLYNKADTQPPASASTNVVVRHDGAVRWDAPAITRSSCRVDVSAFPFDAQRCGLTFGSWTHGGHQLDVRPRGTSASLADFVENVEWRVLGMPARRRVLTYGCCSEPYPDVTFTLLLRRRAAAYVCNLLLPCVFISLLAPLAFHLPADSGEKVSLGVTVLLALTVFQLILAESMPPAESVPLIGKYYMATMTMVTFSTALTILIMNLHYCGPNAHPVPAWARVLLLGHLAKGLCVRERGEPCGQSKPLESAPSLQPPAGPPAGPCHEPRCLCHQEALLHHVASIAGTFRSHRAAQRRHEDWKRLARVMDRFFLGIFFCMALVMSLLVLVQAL
Description: X. laevis oocytes were injected with 25 ng of each cRNA encoding α9 and α10 subunits as previously described (Cartier et al., [1996]) and incubated for 48 h at 17°C in ND96 prior to use. Two-electrode voltage clamp electrophysiology was conducted to assess for functional expression of α9α10 nAChRs as previously described (Azam et al., [2008]). The oocyte membranes were clamped at a holding potential of −70 mV and stimulated with 1 s pulses of 1 mM ACh once every 60 s. After a steady-state response baseline was observed, the oocytes were then stimulated with ascending concentrations of ACh, choline, or nicotine. Each oocyte was stimulated first with ACh followed by choline then nicotine. The maximal response value for activation by ACh was determined using the Hill equation: Y = Bottom + (Top-Bottom)/(1+10^∧((LogEC50−X)*Hill slope)). The responses to all concentrations of ACh, choline, and nicotine were then normalized to this value and calculated as a % response.

[2] = test system: α9α10 nAChR; conditions: MLA and α-bungarotoxin; no reference given; cited from earlier work
[3] = test system: α9* nAChRs of monocytes; conditions: ref Hecker et al., 2015; Richter et al., 2016; Backhaus et al., 2017; cited from earlier work
[4] = test system: CBA/CaJ mice; conditions: mouse, in vivo

**Q.** With CC(=O)OCC[N+](C)(C)C [ACh, acetylcholine] as the compound, how does the ACh-evoked current amplitude ([1]; 1 mM ACh) read?
**A.** > 10 μA

**Q.** What about the “Hill slope for activation” value [1] of the same compound?
**A.** 1.1 (0.8–1.4)

**Q.** What about the “agonist behaviour (words)” value [1] of the same compound?
**A.** activated; also recorded: induced robust currents

**Q.** What about the EC50 [1] of the same compound?
**A.** 30.1 µM

**Q.** With C[N+](C)(C)CCO [choline] as the compound, how does the “Hill slope for activation” value [1] read?
**A.** 1.3 (0.5–2.1)

**Q.** And the “agonist behaviour (words)” value [1]?
**A.** activated

**Q.** And the “agonist behaviour (words)” value ([1]; listed as Choline)?
**A.** behaved as a partial agonist relative to ACh; also recorded: potently activated α9α10 nAChRs

**Q.** What about the EC50 [1] of the same compound?
**A.** 601 µM

**Q.** With CCN1C[C@]2(COC(=O)c3ccccc3N3C(=O)C[C@H](C)C3=O)CC[C@H](OC)[C@@]34[C@@H]5C[C@H]6[C@H](OC)[C@@H]5[C@](O)(C[C@@H]6OC)[C@@](O)([C@@H](OC)[C@H]23)[C@@H]14 [methyllycaconitine (MLA), methyllycaconitine] as the compound, how does the “α9α10 nAChR block” value [2] read?
**A.** potently block α9α10 nAChRs

**Q.** With CN1CCC[C@H]1c1cccnc1 [nicotine] as the compound, how does the “evoked current (% response relative to ACh maximum)” value ([1]; n = 4, nicotine) read?
**A.** 0.4 ± 0.2%

**Q.** And the “agonist behaviour (words)” value [1]?
**A.** not by nicotine; also recorded: did not activate Xenopus oocyte-expressed mouse α9α10 nAChRs

**Q.** What about the “agonist behaviour (words)” value ([1]; listed as Nic) of the same compound?
**A.** failed to evoke currents at concentration from 100 nM to 10 mM

**Q.** What about the “agonist behaviour (words)” value ([1]; listed as Nicotine) of the same compound?
**A.** failed to evoke currents in all oocytes tested

**Q.** And the “Agonist action on monocyte α9* nAChRs” value [3]?
**A.** act as an agonist of α9^* nAChRs in immune cell monocytes

**Q.** With O=C1[O][Pt]2([NH][C@@H]3CCCC[C@H]3[NH]2)[O]C1=O [oxaliplatin] as the compound, how does the “Oxaliplatin-induced cold allodynia” value [4] read?
**A.** produced cold allodynia, an effect that significantly differed from control beginning by week three and continuing for 2 weeks post-oxaliplatin treatment

Reference: publication PMC5519620 (Frontiers in Cellular Neuroscience, 2017)
